Results from PMC3130732, “E. coli Histidine Triad Nucleotide Binding Protein 1 (ecHinT) Is a Catalytic Regulator of D-Alanine Dehydrogenase (DadA) Activity In Vivo” (PLoS ONE, 2011).

Target: T1, E. coli Histidine Triad Nucleotide Binding Protein 1 (ecHinT) (Escherichia coli, UniProt P0ACE7)
T1 construct: gene hinT
Experiment: spectrophotometric phosphoramidase assay
Type: biochemical

T1 sequence (P0ACE7 whole entry): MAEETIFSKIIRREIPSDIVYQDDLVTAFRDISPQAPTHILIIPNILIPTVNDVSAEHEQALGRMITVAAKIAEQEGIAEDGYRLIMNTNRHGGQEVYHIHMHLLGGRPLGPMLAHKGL

SMILES: Nc1nc2c(ncn2[C@@H]2O[C@H](COC(=O)NCCc3c[nH]c4ccccc34)[C@@H](O)[C@H]2O)c(=O)[nH]1 [TpGc, 5′-O-[(3-indolyl)-1-ethyl]carbamoyl guanosine]
- Ki: 42 µM
